Measurements as given in patent US9950091B2, “Composition and method for stopping hemorrhage, infection, and accelerating healing in various types of wound or burns” (priority 2015, dated 2018).

Test system: human blood (platelet/fibrin clot)
Test: Thrombelastography (TEG) clot kinetics in whole blood
Assay type: cell-based
Details: Table 4, mean ± SD, n=4, control = normal blood, 'Heparin +' lines in presence of heparin
Description: Thrombelastography techniques, which are commonly used in the clinical laboratory for monitoring coagulation functions, were utilized. Siliconized Vacutainer tubes (Becton Dickinson, Rutherford, N.J.) were used to collect whole blood. To maintain a ratio of citrate to whole blood of 1:9 (v/v), the tubes contained 3.2% trisodium citrate. Blood samples were placed on a slow speed rocker until TEG analysis.
Whole Blood Coagulation Analyzer, Model 5000 Thrombelastograph, Hemoscope Corporation, Skokie, Ill., was used. TEG is based on the measurement of the physical viscoelastic characteristics of blood clots. An oscillating plastic cylindrical cuvette (“cup”) and a coaxially suspended stationary piston (“pin”) with a […] clearance between the surfaces are used to monitor clot formation at 37° C. Every 4.5 seconds, with a 1-second mid cycle stationary period, the cup oscillates in either direction, resulting in a frequency of 0.1 Hz. […]
Different hydrogel polycatioinic matrix micro-composites were evaluated. […]
A standard global coagulation assay, namely Thrombelastography, uses a total of 5 ml blood from human volunteers. Additionally, the efficiency of the optimal hydrogel compositions that have the shortest Time to Clotting (R) and the strongest clot strength (MA) were evaluated in stopping severe bleeding in a hemorrhage simulation model system. […]

NC[C@H]1CC[C@H](C(=O)O)CC1 [tranexamic acid (TXA), tranexamic acid]
MA-Clot Strength: 57 ± 4 mm
R - Time to Clot initiation: 9.0 ± 4 min
